Structures are written as SMILES.

Series [1] in a line: Mucosal to serosal permeability through rabbit colon in vitro. The format is in vitro ADME.
The conditions of series [2]: cited from earlier work.
A short description of series [3]: Flow through dissolution of granules with pH gradient. The format is physicochemical. The conditions noted are these: for in vitro dissolution profile (in words): compared to the monomethanesulfonate salt (granules); for Percent of Eprosartan dissolved from the granules: flow through 8 mL/min, 37° C. Here is the method:
A flow through dissolution apparatus at 8 mL/min flow rate, 37° C. and the following pH gradient

Consider `CCCCc1ncc(/C=C(\Cc2cccs2)C(=O)O)n1Cc1ccc(C(=O)O)cc1` [(E)-α-[2-n-Butyl-1-[(4-carboxyphenyl)methyl]-1H-imidazol-5-yl]methylene-2-thiophenepropionic acid monomethanesulfonate], for which, in series [1] (in the presence of L-arginine as a solution, compared to the monomethanesulfonate alone), the “increase of mucosal to serosal permeability through rabbit colon” value turned out to be 50%. Besides, in series [2] (human), the “bioavailability (in words)” value was “low and variable bioavailability”; the mean absolute bioavailability entry is listed as “approximately 13%”. In addition, the “time to maximum concentration” value in series [2] (human, fed state) was 2.5 to 4 h. Besides, in series [2] (up to doses of 800 mg per day), the “safety and tolerability in human clinical studies” value is “safe and well tolerated”.

With `CCCCc1ncc(/C=C(\Cc2cccs2)C(=O)O)n1Cc1ccc(C(=O)O)cc1.N=C(N)NCCC[C@H](N)C(=O)O` [Arginyl charge-neutralization-complex, (E)-α-[2-n-butyl-1-[(4-carboxyphenyl)methyl]-1H-imidazol-5-yl]methylene-2-thiophenepropionic acid arginyl charge-neutralization-complex], in series [1] (compared to the monomethanesulfonate salt), the “in vitro permeability through rabbit colon (in words)” value is given as “increased in vitro permeability”. For the same compound, the “in vitro dissolution profile (in words)” value is listed as “improved in vitro dissolution profile” in series [3] and “better dissolution profile” in series [3] (listed as arginine charge-neutralization-complex). The “Percent of Eprosartan dissolved from the granules” value in series [3] (time 0 min, pH gradient) is 0.00%; in series [3] (time 45 min (pH 1.2 SGF step)), 32.81%; in series [3] (time 90 min (pH 3.0 step)) it was 35.82%; in series [3] (time 120 min (pH 4.0 step)), 36.24%; in series [3] (time 150 min (pH 5.0 step)), 37.44%; in series [3] (time 180 min (pH 6.0 step)), 46.70%. In addition, in series [3] (time 225 min (pH 7.5 step)), the “Percent of Eprosartan dissolved from the granules” value came out at 100.63%.

The values are drawn from patent US6630498B2 (SmithKline Beecham Corporation, priority 1997, dated 2003).
